From USRE38330E1, “Preventing and reversing advanced glycosylation endproducts” (Alteon Inc., priority 1995, dated 2003)
Structures can show the parent of a compound that is named as a salt. Where two headings read alike, the source gives them in different places. One block for each compound: values may come before it.

Legend:
[1] = target: T1, AGE-BSA previously crosslinked to the collagen (Bos taurus, UniProt P02769); test: Sandwich enzyme immunoassay for breaking of AGE moieties from AGE-BSA crosslinked to collagen (AGE breaker assay); type: biochemical, bovine; rat; settings: for IC50: AGE breaking, 16 hours 37° C.
T1 construct: Type V BSA (bovine serum albumin); purchased Calbiochem (BSA Type V); Collaborative Biomedical Products (Biocoat rat tail collagen type I plates)
T1 sequence (P02769 25-607): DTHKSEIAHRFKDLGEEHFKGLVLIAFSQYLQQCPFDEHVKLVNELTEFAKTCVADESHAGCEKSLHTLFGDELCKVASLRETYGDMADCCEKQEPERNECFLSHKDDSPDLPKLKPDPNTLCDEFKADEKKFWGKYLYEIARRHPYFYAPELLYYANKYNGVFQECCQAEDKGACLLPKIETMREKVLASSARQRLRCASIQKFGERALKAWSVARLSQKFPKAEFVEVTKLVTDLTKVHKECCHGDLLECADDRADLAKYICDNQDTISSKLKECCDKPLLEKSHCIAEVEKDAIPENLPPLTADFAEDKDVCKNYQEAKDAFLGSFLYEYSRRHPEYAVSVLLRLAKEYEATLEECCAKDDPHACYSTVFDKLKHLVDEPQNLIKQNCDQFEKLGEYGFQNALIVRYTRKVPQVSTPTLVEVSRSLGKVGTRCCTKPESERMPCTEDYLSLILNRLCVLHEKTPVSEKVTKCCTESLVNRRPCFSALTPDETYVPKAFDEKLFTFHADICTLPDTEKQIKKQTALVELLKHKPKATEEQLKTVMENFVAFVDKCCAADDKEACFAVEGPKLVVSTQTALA
T1 sequence (P02454 152-1207 partner limits assumed): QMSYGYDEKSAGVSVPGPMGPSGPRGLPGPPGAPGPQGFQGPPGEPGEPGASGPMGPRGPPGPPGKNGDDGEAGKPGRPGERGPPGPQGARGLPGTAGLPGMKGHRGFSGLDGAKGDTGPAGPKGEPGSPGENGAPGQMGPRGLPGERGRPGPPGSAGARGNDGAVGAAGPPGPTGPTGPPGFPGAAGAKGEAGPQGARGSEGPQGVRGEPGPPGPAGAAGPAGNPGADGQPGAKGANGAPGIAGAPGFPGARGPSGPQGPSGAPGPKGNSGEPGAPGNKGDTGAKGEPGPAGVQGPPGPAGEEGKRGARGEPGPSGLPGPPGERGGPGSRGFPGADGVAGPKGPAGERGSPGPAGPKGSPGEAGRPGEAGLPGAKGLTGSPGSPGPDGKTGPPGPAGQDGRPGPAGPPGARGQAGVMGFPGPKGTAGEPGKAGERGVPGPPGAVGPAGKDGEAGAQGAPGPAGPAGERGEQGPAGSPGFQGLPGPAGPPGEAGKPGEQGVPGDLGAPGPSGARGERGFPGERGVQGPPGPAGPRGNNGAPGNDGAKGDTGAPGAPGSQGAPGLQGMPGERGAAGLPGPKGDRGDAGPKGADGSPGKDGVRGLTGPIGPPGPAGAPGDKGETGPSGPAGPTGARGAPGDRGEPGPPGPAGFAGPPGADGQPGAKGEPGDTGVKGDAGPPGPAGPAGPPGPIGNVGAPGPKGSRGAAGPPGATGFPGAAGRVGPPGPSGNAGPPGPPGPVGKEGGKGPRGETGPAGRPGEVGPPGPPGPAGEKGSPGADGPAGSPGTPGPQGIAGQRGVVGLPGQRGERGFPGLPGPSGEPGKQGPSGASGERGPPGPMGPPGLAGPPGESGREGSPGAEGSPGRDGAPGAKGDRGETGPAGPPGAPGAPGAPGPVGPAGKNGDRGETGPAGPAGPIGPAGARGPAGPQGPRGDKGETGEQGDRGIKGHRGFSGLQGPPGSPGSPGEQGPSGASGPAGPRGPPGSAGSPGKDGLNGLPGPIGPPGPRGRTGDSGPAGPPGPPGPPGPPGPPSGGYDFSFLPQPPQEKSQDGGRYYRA
T1 sequence (P02466 86-1125 partner limits assumed): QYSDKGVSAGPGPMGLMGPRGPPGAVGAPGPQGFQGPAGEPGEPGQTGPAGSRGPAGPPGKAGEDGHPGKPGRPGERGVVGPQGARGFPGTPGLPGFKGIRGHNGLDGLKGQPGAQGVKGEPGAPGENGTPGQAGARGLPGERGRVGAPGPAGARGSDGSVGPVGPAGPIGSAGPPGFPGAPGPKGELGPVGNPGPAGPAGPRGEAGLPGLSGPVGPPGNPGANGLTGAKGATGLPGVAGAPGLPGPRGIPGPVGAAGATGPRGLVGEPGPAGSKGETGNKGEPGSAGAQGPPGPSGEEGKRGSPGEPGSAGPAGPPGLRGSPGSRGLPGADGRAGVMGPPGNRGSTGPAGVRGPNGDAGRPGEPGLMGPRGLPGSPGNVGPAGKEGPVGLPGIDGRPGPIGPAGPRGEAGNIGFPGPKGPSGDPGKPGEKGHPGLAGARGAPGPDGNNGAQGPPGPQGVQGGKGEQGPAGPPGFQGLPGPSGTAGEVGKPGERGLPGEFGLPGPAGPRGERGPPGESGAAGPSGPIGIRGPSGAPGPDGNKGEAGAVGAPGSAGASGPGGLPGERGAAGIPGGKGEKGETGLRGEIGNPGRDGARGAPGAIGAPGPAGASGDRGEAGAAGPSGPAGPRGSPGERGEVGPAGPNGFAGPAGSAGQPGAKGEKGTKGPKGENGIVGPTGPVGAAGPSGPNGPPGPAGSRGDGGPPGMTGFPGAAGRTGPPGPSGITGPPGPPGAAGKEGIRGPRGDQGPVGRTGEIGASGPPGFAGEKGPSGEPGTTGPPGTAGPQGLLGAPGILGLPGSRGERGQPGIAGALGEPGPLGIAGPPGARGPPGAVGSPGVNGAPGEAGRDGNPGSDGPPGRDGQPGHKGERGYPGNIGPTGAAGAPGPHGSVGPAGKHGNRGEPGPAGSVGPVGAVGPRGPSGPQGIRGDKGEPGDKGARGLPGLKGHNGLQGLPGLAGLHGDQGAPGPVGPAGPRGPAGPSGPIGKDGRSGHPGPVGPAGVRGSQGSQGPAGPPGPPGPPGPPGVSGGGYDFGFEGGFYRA
Procedure: The present invention also involves a novel sandwich enzyme immunoassay used to ascertain the ability of test compounds to “break” or reverse already formed advanced glycosylation endproducts by detecting the breaking of AGE (Advanced glycosylation endproduct) moieties from AGE-crosslinked protein. This assay comprises:
a) incubation of AGE-modified bovine serum albumin (AGE-BSA) on collagen-coated wells of microtiter plates for a period of 2-6 hours at a temperature of 37° C.;
b) washing of the wells with PBS-Tween;
c) application of the test compounds to the washed wells of step b;
d) incubation of the test compounds applied to the washed wells for an additional 12-24 hours at a temperature of about 37° C.; and
e) detection of the AGE-breaking using an antibody raised against AGE-ribonuclease or cross-link breaking with an antibody against BSA.
In order to ascertain the ability of the compounds of the instant invention to “break” or reverse already formed advanced glycosylation endproducts, a novel sandwich enzyme immunoassay was developed which detects breaking of AGE (Advanced glycosylation endproduct) moieties from AGE-crosslinked protein. The assay utilizes collagen-coated 96 will microtiter plates that are obtained commercially. AGE-modified protein (AGE-BSA) is incubated on the collagen-coated wells for four hours, is washed off the wells with PBS-Tween and the test compounds are added. Following an incubation period of 16 hours (37° C.) AGE-breaking is detected using an antibody raised against AGE-ribonuclease or with an antibody against BSA. […] Details of the assay are as follows:
1. AGE-BSA stock solutions were prepared as follows. Sodium phosphate buffer (0.4M) was prepared by dissolving 6 grams of monobasic sodium phosphate in 100 ml of distilled water, 7 grams of dibasic sodium phosphate (0.4M) in 100 ml of distilled water and adjusting the pH of the dibasic solution to 7.4 with the monobasic solution. Sodium azide (0.02 grams) was added per 100 ml volume to inhibit bacterial growth. The BSA solution was prepared as follows: 400 mg of Type V BSA (bovine serum albumin) was added for each ml of sodium phosphate buffer (above). A 400 mM glucose solution was prepared by dissolving […] of dextrose in 100 ml of sodium phosphate buffer (above). The BSA and glucose solutions were mixed 1:1 and incubated at 37° C. for 12 weeks. The pH of the incubation mixture was monitored weekly and adjusted to pH 7.4 if necessary. After 12 weeks, the AGE-BSA solution was dialyzed against PBS for 48 hours with four buffer changes, each at a 1:500 ratio of solution to dialysis buffer. Protein concentration was determined by the micro-Lowry method. The AGE-BSA stock solution was aliquoted and stored at −20° C.
2. Working solutions for crosslinking and breaking studies were prepared as follows. Test compounds were dissolved in PBS and the pH was adjusted to pH 7.4 if necessary. AGE-BSA stock solution was diluted in PBS to measure maximum crosslinking and in the inhibitor solution for testing inhibitory activity of compounds. The concentration of AGE-BSA necessary to achieve the optimum sensitivity was determined by initial titration of each lot of AGE-BSA.
3. Wash buffer (“PBS-Tween”) was prepared as follows. PBS was prepared by dissolving the following salts in one liter of distilled water: NaCl, 8 grams; KCl, 0.2 gram, KH2PO4. […] Tween-20 was added to a final concentration of 0.05% (vol/vol).
4. Substrates for detection of secondary antibody binding were prepared by diluting the HRP substrate buffer 1:10 in distilled water and mixing with ABTS chromogen 1:50 just prior to use.
1. Biocoat plates were blocked With 300 μl of “Superbloc”. Plates were blocked for one hour at room temperature and were washed with PBS-Tween three times with the Dynatech platewasher before addition of test reagents.
2. Each experiment was set up in the following manner.

[2] = target: T2, cross-linking of glycated bovine serum albumin (AGE-BSA) to the rat tail tendon collagen (Bos taurus, UniProt P02769); test: Inhibition of cross-linking of glycated BSA (AGE-BSA) to rat tail tendon collagen coated 96-well plate (ELISA); type: biochemical
T2 construct: glycated bovine serum albumin (AGE-BSA); from tissue; host or cells: collagen from rat tail tendon; BSA from bovine serum, glycated in house
T2 sequence (P02769 25-607): as the sequence (P02769 25-607) above
Procedure: The cross-linked AGE-BSA to the tail tendon coated plate was then quantitated by the polyclonal antibody raised against AGE-RNase.
The % inhibition of each test compound was calculated as follows.

[3] = tested on: immunoglobulin trapping in the kidney; settings: in vivo; cited from earlier work
[4] = tested on: red blood cells; settings: in vivo; cited from earlier work
[5] = tested on: aortic wall protein cross-linking in diabetic rats; settings: cited from earlier work
[6] = read-out: % Inhibition Anti-AGE (at mM)
[7] = read-out: % Inhibition Anti-BSA (at mM)
[8] = detection with anti-AGE-RNase antibody, read-out: IC50 (mM) Anti-AGE
[9] = detection with anti-BSA antibody, read-out: IC50 (mM) Anti-BSA

Compound: COC(=O)C[n+]1ccsc1 [3-(2-Methoxy-2-oxoethyl)thiazolium bromide]
- inhibition at 30000 µM [1, 6]: 38%
- inhibition at 30000 µM [1, 7]: 41%
- IC50 [2]: 138 µM

Compound: O=C(C[n+]1ccsc1)c1ccc(Br)cc1.[Br-] [3-(2-[4^1-bromophenyl]-2-oxoethyl)-thiazolium bromide]
- % Inhibition Anti-AGE (at mM) ([1]; at 30 mM, detection with anti-AGE-RNase antibody): 76%
- % Inhibition Anti-BSA (at mM) ([1]; at 30 mM, detection with anti-BSA antibody): 25%

Compound: Cc1sc[n+](CC(N)=O)c1C.[Br-] [3-(2-amino-2-oxoethyl)-4,5-dimethyl-thiazolium bromide]
- melting point: 147 to 148 °C
- inhibition at 30000 µM [1, 6]: 69%
- inhibition at 30000 µM [1, 7]: 75%
- IC50 [2]: 338 µM

Compound: Cc1c(CCO)sc[n+]1CC(N)=O [3-(2-amino-2-oxoethyl)-4-methyl-5-(2-hydroxyethyl)thiazolium bromide]
- IC50 [1, 8]: 12 µM
- IC50 [1, 9]: 120 µM
- IC50 [2]: 1260 µM

Compound: Cc1csc[n+]1CC(N)=O [3-(2-amino-2-oxoethyl)-4-methyl-thiazolium bromide]
- IC50 [1, 8]: 4700 µM
- IC50 [1, 9]: 38600 µM
- IC50 [2]: 116 µM

Compound: NC(=O)C[n+]1csc2ccccc21.[Br-] [3-(2-amino-2-oxoethyl)-benzothiazolium bromide]
- melting point: 222 to 223 °C
- IC50 [1, 8]: 140 µM
- IC50 [1, 9]: 520 µM
- IC50 [2]: 618 µM

Compound: COC(=O)C[n+]1csc(C)c1C [3-(2-methoxy-2-oxoethyl)-4,5-dimethylthiazolium bromide]
- inhibition at 30000 µM [1, 6]: 50%
- inhibition at 30000 µM [1, 7]: 30%
- IC50 [2]: 138 µM

Compound: COC(=O)C[n+]1cscc1C.[Br-] [3-(2-methoxy-2-oxoethyl)-4-methylthiazolium bromide]
- melting point: 149 to 151 °C (dec.)
- inhibition at 30000 µM [1, 6]: 54%
- inhibition at 30000 µM [1, 7]: 41%

Compound: COC(=O)C[n+]1csc(C)c1.[Br-] [3-(2-methoxy-2-oxoethyl)-5-methyl-thiazolium bromide]
- melting point: 193 to 194 °C (dec.)
- inhibition at 30000 µM [1, 6]: 72%
- inhibition at 30000 µM [1, 7]: 27%
- IC50 [2]: 73 µM

Compound: COC(=O)C[n+]1csc2ccccc21 [3-(2-methoxy-2-oxoethyl)-benzothiazolium bromide]
- IC50 [1, 8]: 1200 µM
- IC50 [1, 9]: 25900 µM

Compound: CC(=O)C[n+]1ccsc1.[Cl-] [3-(2-methyl-2-oxoethyl)thiazolium chloride]
- melting point: 178 to 179 °C
- IC50 ([1]; IC50 (mM) Anti-AGE, detection with anti-AGE-RNase antibody): 0.036 µM
- IC50 ([1]; IC50 (mM) Anti-BSA, detection with anti-BSA antibody): 260 µM

Compound: Cc1sc[n+](CC(=O)c2ccccc2)c1C [3-(2-phenyl-2-oxoethyl)-4,5-dimethylthiazolium bromide]
- inhibition at 30000 µM [1, 6]: 56%
- IC50 [2]: 48500 µM

Compound: Cc1c(CCO)sc[n+]1CC(=O)c1ccccc1 [3-(2-phenyl-2-oxoethyl)-4-methyl-5-(2-hydroxyethyl)-thiazolium bromide]
- IC50 [1, 8]: 14300 µM

Compound: Cc1csc[n+]1CC(=O)c1ccccc1.[Br-] [3-(2-phenyl-2-oxoethyl)-4-methylthiazolium bromide]
- melting point: 218 to 220 °C (dec.)
- IC50 [1, 8]: 230 µM
- IC50 [1, 9]: 300 µM
- IC50 [2]: 10300 µM

Compound: O=C(C[n+]1ccsc1)c1ccccc1 [3-(2-phenyl-2-oxoethyl)thiazolium bromide]
- IC50 [1, 8]: 20 µM
- IC50 [1, 9]: 14 µM

Compound: O=C(O)C[n+]1csc2ccccc21.[Br-] [3-(carboxymethyl)benzothiazolium bromide, 3-(carboxymethyl)-benzothiazolium bromide]
- melting point: 250 °C (dec.)
- inhibition at 30000 µM [1, 6]: 63.7%
- inhibition at 30000 µM [1, 7]: 17.9%

Compound: N=C(N)NN [aminoguanidine]
- immunoglobulin trapping in the kidney [3]: reduction of immunoglobulin trapping in the kidney
- diabetes-induced changes in the deformability of red blood cells [4]: has been shown to prevent it in vivo
- aortic wall protein cross-linking [5]: diminishes aortic wall protein cross-linking

The next lines start with the values.

- melting point: 84 to 85 °C
Compound: CC[n+]1csc(CCO)c1C.[Br-]

- melting point: 240 to 241 °C (dec.)
Compound: O=C(C[n+]1csc2ccccc21)c1ccccc1.[Br-]

- melting point: 217 to 218 °C
Compound: COC(=O)C[n+]1csc(CCOC(C)=O)c1C.[Br-]

- melting point: 233 to 234 °C
Compound: CC(=O)OCCc1sc[n+](CC(N)=O)c1C.[Br-]

- melting point: 191 to 192 °C
Compound: COC(=O)C[n+]1ccsc1N.[Br-]

- melting point: 236 to 237 °C
Compound: COC(=O)C[n+]1c(N)sc2ccccc21.[Br-]

- melting point: 209 to 210 °C
Compound: NC(=O)C[n+]1ccsc1N.[Br-]

- melting point: 234 to 235 °C
Compound: NC(=O)C[n+]1c(N)sc2ccccc21.[Br-]

- melting point: 251 to 252 °C (dec.)
Compound: Cc1c(CCO)sc[n+]1CC(=O)c1ccc(Br)cc1 (as salt: bromide) [3-(2-[4^1-bromophenyl]-2-oxoethyl)-4-methyl-5-(2-hydroxyethyl)thiazolium bromide]

- melting point: 212 to 214 °C (dec.)
- inhibition at 30000 µM ([1]; at 30 mM, detection with anti-AGE-RNase antibody, read-out: % Inhibition Anti-AGE (at mM)): 75%
- inhibition at 30000 µM ([1]; at 30 mM, detection with anti-BSA antibody, read-out: % Inhibition Anti-BSA (at mM)): 35%
- IC50 [2]: 74.9 µM
Compound: Nc1sc2ccccc2[n+]1N [2,3-diamino-benzothiazolium mesitylenesulfonate]

- IC50 [2]: 2920 µM
Compound: Cc1sc[n+](CC(=O)c2ccc(Br)cc2)c1C [3-(2-[4^1-bromophenyl]-2-oxoethyl)-4,5-dimethylthiazolium bromide]

- IC50 [2]: 4510 µM
Compound: Cc1c(CCO)sc[n+]1CC(=O)c1ccc(Br)cc1 [3-(2-[4^1-bromophenyl]-2-oxoethyl)-4-methyl-5-(2-hydroxyethyl)thiazolium bromide]

- melting point: 179 to 180 °C
- IC50 [2]: 28.9 µM
Compound: Cc1c[n+](CC(N)=O)cs1.[Br-] [3-(2-amino-2-oxoethyl)-5-methyl-thiazolium bromide]

- melting point: 205 to 206 °C
- IC50 [2]: 226 µM
Compound: NC(=O)C[n+]1ccsc1.[Br-] [3-(2-amino-2-oxoethyl)thiazolium bromide, 3-(2-amino-2-oxoethyl)-thiazolium bromide]

- melting point: 137 to 138 °C
Compound: COC(=O)C[n+]1csc(CCO)c1C.[Br-] [3-(2-methoxy-2-oxoethyl)-4-methyl-5-(2-hydroxyethyl)-thiazolium bromide]

- IC50 [2]: 13900 µM
Compound: Cc1c[n+](CC(=O)c2ccccc2)cs1 [3-(2-phenyl-2-oxoethyl)-5-methyl-thiazolium bromide]

- melting point: 144 to 146 °C
- IC50 [1, 8]: 420 µM
- IC50 [1, 9]: 550 µM
Compound: Cc1c(CCO)sc[n+]1Cc1ccccc1.[Cl-] [3-benzyl-5-(2-hydroxyethyl)-4-methyl thiazolium chloride]
